Measured values reported in patent US12667104B2, “Herbicidal compositions” (Yissum Research Development Company of the Hebrew …, priority 2019, dated 2026).

Test system: weeds
Assay: Weed control: small scale field experiment (1 m×1 m plots)
Assay type: in vivo
Conditions: for herbicidal effect category, 30 days: 30 days after the treatment; for herbicidal effect category, 30 days / herbicidal effect category, 12 days: 1 m×1 m plots, sprayed at 100 liter per hectare, concentration C (% by weight) per composition; for herbicidal effect (in words): small scale field plots, summary of Table 1; for herbicidal effect category, 12 days: 12 days after the treatment
Protocol: The active components(s), the concentration of the dissolved/suspended active components in the aqueous composition (C, expressed as % by weight of the composition) and the mixing ratios in case of multiple components are tabulated in Table 1.
Compositions 1-A to 1-L, 2-O, 2-P and 3-Q to 3-V were prepared by dissolving water-soluble powders or pellets in water, or adding to water sparingly soluble powders, or combination of both, at the concentrations set out in Table 1, to form sprayable solutions/suspensions.
The herbicidal compositions were sprayed at rate of application of 100 liter per hectare.
The herbicidal effect was determined 5, 12 and 30 days after the treatment. To this end, five categories were defined: • A category: complete control of the weeds was achieved. • B category: severe damage was caused to the weeds. • C category: some damage was caused to the weeds. • D category: minor damage was caused to the weeds. • E category: no damage was caused to the weeds.

SMILES	herbicidal effect category, 30 days	herbicidal effect (in words)	herbicidal effect category, 12 days
[Ca+2].[OH-].[OH-] [Composition 1-G, Ca(OH)2]	D+	poor activity	–
[Na+].[OH-] [Composition 1-A, NaOH]	B+	–	–
O=C([O-])O.[Na+] [Composition 1-C, NaHCO3]	–	–	D+
O=C([O-])O.O=C([O-])O.[Ca+2] [Composition 1-I, Ca(HCO3)2]	–	poor activity	D+
[K+].[OH-] [Composition 1-D, KOH]	B+	–	–
O=C([O-])O.[K+] [Composition 1-F, KHCO3]	C+	–	–
